In patent US20100041089A1, “IMPROVED METHOD FOR DETECTING CHEMICAL […]” (priority 2006, published 2010):

Test system: yeast genes (expressed mRNA)
Assay: DNA chip measurement of expressed mRNA of yeast genes after culture with a toxic chemical substance
Assay type: cell-based, Saccharomyces cerevisiae S288C
Settings: for level of expressed mRNA in the presence of chemical substance / level in the absence of chemical substance: cultured two hours with the chemical substance; for The level of expressed mRNA in the presence of chemical substance/The level of expressed mRNA in the absence of chemical substance: cultured two hours with substance
Protocol: Yeast (Saccharomyces cerevisiae S288C (a SUC2mal mel gap2 CUP1)) were cultured at 25° C. on YPD medium (yeast extract 1%, polypeptone 2%, glucose 2%). One of toxic chemical substances was added to the cell at logarithmic growth phase, and the cell was further cultured for two hours. Cell was cultured without any chemical substance in the same condition, and was used as a control. Concentrations of the chemical substances were defined to inhibit the growth of the yeast but not lead to death.
After the completion of cultivation, the culture was centrifuged to collect the cells. To the cells, sodium acetate buffer (50 mM sodium acetate, 10 mM EDTA, 1% SDS) was added, and the mixture was shaken at 65° C. for five minutes, followed by returning to room temperature, and obtaining the supernatant, which procedure was repeated two times. To the supernatant, ½ amount of a solution of phenol/chloroform (1:1) was added, and the mixture was centrifuged to give a supernatant, an equal amount of chloroform was added, and the mixture was centrifuged to give a supernatant. To the supernatant, an equal amount of isopropanol containing 0.3 M sodium acetate was added, and the mixture was allowed to stand at room temperature for 30 minutes, after which the mixture was centrifuged to give sediment of the whole RNAs. Seventy % ethanol was added to the sediment, and the mixture was again centrifuged to give sediment, which was then dried and dissolved in water. mRNA was isolated from the whole RNAs as followings. In view of the fact that a poly A chain is attached to the 3′ terminus of mRNA, a polynucleotide having a poly T structure which was immobilized on the surface of latex beads was used to trap the mRNA, and then the mRNA was washed and eluted with spine column (Oligotex-dT30<Super>mRNA Purification Kit, Takara). Reverse transcription of the mRNA was conducted with a reverse transcriptase (Super Script II Reverse Transcriptase; catalogue No. 18064-014, GibcoBRL) using fluorescence-labeled nucleotides to give cDNAs that were introduced with Cy3-dUTP or Cy5-dUTP during the reverse transcription.
The labeled cDNAs were dissolved in TE buffer (10 mM Tris-HCl/1 mM EDTA, pH 8.0), and the solution was dropped on the DNA chip containing the whole genes of yeast (DNA Chip Research Inc. Japan) so that the cDNAs were hybridized on the DNA chip at 65° C. for over 12 hours. The fluoresces intensity of the DNA chip was read with a scanner, and the ratio relative to the fluorescence intensity resulting from the absence of chemical substance was estimated as the following, which is shown in Tables 1 to 9.
In the Tables, “Intensity” indicated in the rightmost column is a value of the level of expressed mRNA of each gene in control cells as divided by the average level of the expressions of the whole genes. A gene of which mRNA level is lower in control, and is higher in cases of addition of chemical substance, is especially useful in the detection of toxic substances.
Here, when a ratio of an amount of mRNA expressed in the presence of the chemical substance to an amount of mRNA expressed in the absence of the chemical substance is two or more, then it is considered significant.

[Cl][Hg][Cl] [(3), HgCl2]
level of expressed mRNA in the presence of chemical substance / level in the absence of chemical substance (yeast gene YDR128W): 1.4 | level of expressed mRNA in the presence of chemical substance / level in the absence of chemical substance (yeast gene YDR133C): 2.9 | level of expressed mRNA in the presence of chemical substance / level in the absence of chemical substance (yeast gene YDR250C): 0.9 | level of expressed mRNA in the presence of chemical substance / level in the absence of chemical substance (yeast gene YDR278C): 0.9 | level of expressed mRNA in the presence of chemical substance / level in the absence of chemical substance (yeast gene YDR281C): 0.4 | The level of expressed mRNA in the presence of chemical substance/The level of expressed mRNA in the absence of chemical substance (yeast gene YDR330W): 1.2 | level of expressed mRNA in the presence of chemical substance / level in the absence of chemical substance (yeast gene YDR366C): 0.8 | The level of expressed mRNA in the presence of chemical substance/The level of expressed mRNA in the absence of chemical substance (yeast gene YDR411C): 1.8 | The level of expressed mRNA in the presence of chemical substance/The level of expressed mRNA in the absence of chemical substance (yeast gene YDR511W): 0.9 | The level of expressed mRNA in the presence of chemical substance/The level of expressed mRNA in the absence of chemical substance (yeast gene YDR545W): 0.6 | The level of expressed mRNA in the presence of chemical substance/The level of expressed mRNA in the absence of chemical substance (yeast gene YEL001C): 1.4 | The level of expressed mRNA in the presence of chemical substance/The level of expressed mRNA in the absence of chemical substance (yeast gene YER004W): 1.9 | The level of expressed mRNA in the presence of chemical substance/The level of expressed mRNA in the absence of chemical substance (yeast gene YER035W): 1.6 | The level of expressed mRNA in the presence of chemical substance/The level of expressed mRNA in the absence of chemical substance (yeast gene YER079W): 1.9 | The level of expressed mRNA in the presence of chemical substance/The level of expressed mRNA in the absence of chemical substance (yeast gene YER106W): 1.3 | The level of expressed mRNA in the presence of chemical substance/The level of expressed mRNA in the absence of chemical substance (yeast gene YER158C): 0.9 | The level of expressed mRNA in the presence of chemical substance/The level of expressed mRNA in the absence of chemical substance (yeast gene YER163C): 1.2 | The level of expressed mRNA in the presence of chemical substance/The level of expressed mRNA in the absence of chemical substance (yeast gene YER175C): 1.3 | The level of expressed mRNA in the presence of chemical substance/The level of expressed mRNA in the absence of chemical substance (yeast gene YFL006W): 1.6 | The level of expressed mRNA in the presence of chemical substance/The level of expressed mRNA in the absence of chemical substance (yeast gene YFL010C): 1.3 | The level of expressed mRNA in the presence of chemical substance/The level of expressed mRNA in the absence of chemical substance (yeast gene YFL024C): 1.1 | The level of expressed mRNA in the presence of chemical substance/The level of expressed mRNA in the absence of chemical substance (yeast gene YFL032W): 1.6 | level of expressed mRNA in the presence of chemical substance / level in the absence of chemical substance (yeast gene YFR026C): 1.0 | The level of expressed mRNA in the presence of chemical substance/The level of expressed mRNA in the absence of chemical substance (yeast gene YGL037C): 6.5 | The level of expressed mRNA in the presence of chemical substance/The level of expressed mRNA in the absence of chemical substance (yeast gene YGL047W): 1.6 | The level of expressed mRNA in the presence of chemical substance/The level of expressed mRNA in the absence of chemical substance (yeast gene YGL053W): 1.2 | level of expressed mRNA in the presence of chemical substance / level in the absence of chemical substance (yeast gene YGL088W): 0.9 | The level of expressed mRNA in the presence of chemical substance/The level of expressed mRNA in the absence of chemical substance (yeast gene YGL121C): 1.4 | The level of expressed mRNA in the presence of chemical substance/The level of expressed mRNA in the absence of chemical substance (yeast gene YGL199C): 1.7 | level of expressed mRNA in the presence of chemical substance / level in the absence of chemical substance (yeast gene YGR038W): 3.5 | The level of expressed mRNA in the presence of chemical substance/The level of expressed mRNA in the absence of chemical substance (yeast gene YGR101W): 1.2 | The level of expressed mRNA in the presence of chemical substance/The level of expressed mRNA in the absence of chemical substance (yeast gene YGR110W): 2.2 | The level of expressed mRNA in the presence of chemical substance/The level of expressed mRNA in the absence of chemical substance (yeast gene YGR130C): 0.6 | level of expressed mRNA in the presence of chemical substance / level in the absence of chemical substance (yeast gene YGR139W): 0.8 | The level of expressed mRNA in the presence of chemical substance/The level of expressed mRNA in the absence of chemical substance (yeast gene YGR154C): 2.2 | The level of expressed mRNA in the presence of chemical substance/The level of expressed mRNA in the absence of chemical substance (yeast gene YGR221C): 0.9 | level of expressed mRNA in the presence of chemical substance / level in the absence of chemical substance (yeast gene YGR243W): 9.4 | level of expressed mRNA in the presence of chemical substance / level in the absence of chemical substance (yeast gene YGR293C): 1.6 | level of expressed mRNA in the presence of chemical substance / level in the absence of chemical substance (yeast gene YHL006C): 0.9 | level of expressed mRNA in the presence of chemical substance / level in the absence of chemical substance (yeast gene YHR095W): 1.5 | level of expressed mRNA in the presence of chemical substance / level in the absence of chemical substance (yeast gene YHR105W): 2.4 | The level of expressed mRNA in the presence of chemical substance/The level of expressed mRNA in the absence of chemical substance (yeast gene YHR138C): 2.2 | level of expressed mRNA in the presence of chemical substance / level in the absence of chemical substance (yeast gene YHR181W): 2.4 | The level of expressed mRNA in the presence of chemical substance/The level of expressed mRNA in the absence of chemical substance (yeast gene YHR199C): 3.2 | The level of expressed mRNA in the presence of chemical substance/The level of expressed mRNA in the absence of chemical substance (yeast gene YIL023C): 2.1 | The level of expressed mRNA in the presence of chemical substance/The level of expressed mRNA in the absence of chemical substance (yeast gene YIL041W): 2.1 | The level of expressed mRNA in the presence of chemical substance/The level of expressed mRNA in the absence of chemical substance (yeast gene YIL087C): 3.4 | level of expressed mRNA in the presence of chemical substance / level in the absence of chemical substance (yeast gene YIL127C): 0.2 | level of expressed mRNA in the presence of chemical substance / level in the absence of chemical substance (yeast gene YJL017W): 3.5 | level of expressed mRNA in the presence of chemical substance / level in the absence of chemical substance (yeast gene YJL037W): 1.4 | The level of expressed mRNA in the presence of chemical substance/The level of expressed mRNA in the absence of chemical substance (yeast gene YJL057C): 1.6 | The level of expressed mRNA in the presence of chemical substance/The level of expressed mRNA in the absence of chemical substance (yeast gene YJL066C): 1.2 | The level of expressed mRNA in the presence of chemical substance/The level of expressed mRNA in the absence of chemical substance (yeast gene YJL082W): 2.4
